In ChEMBL document CHEMBL1139775, “A novel ketolide class: Synthesis and antibacterial activity of a lead compound” (2007):
Values after ≈ are worked out from the molar mass of the structure shown.

Columns and labels:
Format in all cases: functional
Escherichia coli = experiment: Antibacterial activity against Escherichia coli ATCC 25922
Staphylococcus aureus [1] = experiment: Antibacterial activity against erythromycin-sensitive Staphylococcus aureus ATCC 13709
Streptococcus pyogenes [2] = experiment: Antibacterial activity against erythromycin-sensitive Streptococcus pyogenes 3565
Haemophilus influenzae = experiment: Antibacterial activity against Haemophilus influenzae ATCC 49247
Streptococcus pneumoniae [3] = experiment: Antibacterial activity against Streptococcus pneumoniae 4636 MLSc
Streptococcus pyogenes [4] = experiment: Antibacterial activity against Streptococcus pyogenes MLSi
Moraxella catarrhalis = experiment: Antibacterial activity against Moraxella catarrhalis ATCC 23246
Streptococcus pneumoniae [5] = experiment: Antibacterial activity against Streptococcus pneumoniae CI137 M
Streptococcus pyogenes [6] = experiment: Antibacterial activity against Streptococcus pyogenes M
Streptococcus pneumoniae [7] = experiment: Antibacterial activity against erythromycin-sensitive Streptococcus pneumoniae
Staphylococcus aureus [8] = experiment: Antibacterial activity against […] MLSc

MIC (Escherichia coli) [µg/mL] | MIC (Staphylococcus aureus [1]) [µg/mL] | MIC (Streptococcus pyogenes [2]) [µg/mL] | MIC (Haemophilus influenzae) [µg/mL] | MIC (Streptococcus pneumoniae [3]) [µg/mL] | MIC (Streptococcus pyogenes [4]) [µg/mL] | MIC (Moraxella catarrhalis) [µg/mL] | MIC (Streptococcus pneumoniae [5]) [µg/mL] | MIC (Streptococcus pyogenes [6]) [µg/mL] | MIC (Streptococcus pneumoniae [7]) [µg/mL] | MIC (Staphylococcus aureus [8]) [µg/mL] | Compound
64 (≈ 104 µM) | 0.25 (≈ 0.408 µM) | 0.06 (≈ 0.0979 µM) | 16 (≈ 26.1 µM) | > 128 | 0.06 (≈ 0.0979 µM) | 0.12 (≈ 0.196 µM) | 0.25 (≈ 0.408 µM) | 0.25 (≈ 0.408 µM) | 0.06 (≈ 0.0979 µM) | > 128 | CC[C@@H]1OC(=O)[C@H](C)C(=O)[C@H](C)[C@@H](O[C@@H]2O[C@H](C)C[C@H](N(C)C)[C@H]2O)[C@@](C)(OC)C[C@@H](C)C(=O)[C@H](C)[C@H]2NC(=O)O[C@]12C
128 (≈ 209 µM) | 0.5 (≈ 0.817 µM) | 0.12 (≈ 0.196 µM) | 16 (≈ 26.2 µM) | > 128 | 0.5 (≈ 0.817 µM) | 0.5 (≈ 0.817 µM) | 0.12 (≈ 0.196 µM) | 0.12 (≈ 0.196 µM) | ≤ 0.06 | > 128 | CC[C@@H]1OC(=O)[C@H](C)C(=O)[C@H](C)[C@@H](O[C@@H]2O[C@H](C)C[C@H](N(C)C)[C@H]2O)[C@@](C)(OC)C[C@@H](C)C(=O)[C@H](C)[C@H]2CC(=O)O[C@]12C

Compound | MIC (Escherichia coli) [µg/mL] | MIC (Staphylococcus aureus [1]) [µg/mL] | MIC (Streptococcus pyogenes [2]) [µg/mL] | MIC (Haemophilus influenzae) [µg/mL] | MIC (Streptococcus pneumoniae [3]) [µg/mL] | MIC (Streptococcus pyogenes [4]) [µg/mL] | MIC (Moraxella catarrhalis) [µg/mL] | MIC (Streptococcus pneumoniae [5]) [µg/mL] | MIC (Streptococcus pyogenes [6]) [µg/mL] | MIC (Streptococcus pneumoniae [7]) [µg/mL] | MIC (Staphylococcus aureus [8]) [µg/mL]
CC[C@H]1OC(=O)[C@H](C)[C@@H](O[C@H]2C[C@@](C)(OC)[C@@H](O)[C@H](C)O2)[C@H](C)[C@@H](O[C@@H]2O[C@H](C)C[C@H](N(C)C)[C@H]2O)[C@](C)(OC)C[C@@H](C)C(=O)[C@H](C)[C@@H](O)[C@]1(C)O [CLARITHROMYCIN] | 64 (≈ 85.6 µM) | 0.25 (≈ 0.334 µM) | ≤ 0.06 | 8 (≈ 10.7 µM) | > 128 | 2 (≈ 2.67 µM) | ≤ 0.25 | 8 (≈ 10.7 µM) | 2 (≈ 2.67 µM) | ≤ 0.06 | > 32
